US9433645B2, “Method and composition for preventing stem cell disruption and aggregation” (R BIO CO., LTD., priority 2012, dated 2016)

Columns and labels:
Assay type in all cases: cell-based, human
[1] = system: adipose tissue-derived mesenchymal stem cells; assay: Survival rate of stem cells suspended in normal saline containing acetylsalicylic acid; conditions: for Survival rate: 1.0×10^7 cells
Procedure: After the adipose tissue-derived mesenchymal stem cells isolated in Example 1 were treated with trypsin, the trypsin treated adipose tissue-derived mesenchymal stem cells (1.0×10^7 cells) were suspended in normal saline containing acetylsalicylic acid (Sigma; A5376) at each concentration, and survival rates at 12 and 24 hours were observed. The normal saline containing acetylsalicylic acid was prepared by adding acetylsalicylic acid to normal saline at each concentration and performing sonication at 37 °C for 30 minutes.

[2] = system: adipose tissue-derived mesenchymal stem cells; assay: Survival, number of cells and aggregation of stem cells suspended in normal saline containing aspirin lysine
Procedure: (§1) After the adipose tissue-derived mesenchymal stem cells isolated in Example 1 were treated with trypsin, the trypsin treated adipose tissue-derived mesenchymal stem cells (1.0×10^6 cells) were suspended in normal saline containing aspirin lysine (Shinpoong) at each concentration and cultured for 5 days, and the number of cells was measured. Then, after cold-temperature storage for 24 hours, FACS was measured, thereby confirming characteristics of the cells.

[3] = system: adipose tissue-derived mesenchymal stem cells; assay: FACS characteristics (marker expression rate) of stem cells after suspension in normal saline containing aspirin lysine
Procedure: as §1

[4] = FACS, aspirin 0.1 mg/10 ml, after cold-temperature storage for 24 hours

Row | Compound | Survival rate ([1]; 12 hours, aspirin 1 mg/10 ml normal saline) | Survival rate ([1]; 12 hours, aspirin 2 mg/10 ml normal saline) | Survival rate ([1]; 12 hours, aspirin 5 mg/10 ml normal saline) | Survival rate ([1]; 24 hours, aspirin 1 mg/10 ml normal saline) | Survival rate ([1]; 24 hours, aspirin 2 mg/10 ml normal saline) | Survival rate ([1]; 24 hours, aspirin 5 mg/10 ml normal saline) | Cytotoxic effect ([1]; aspirin added to 10 ml of normal saline 1.0 mg or more) | Change in the number of cells ([2]; after culturing for 5 days) | Cell survival rate depending on the concentration ([2]; normal saline containing aspirin lysine at each concentration) | Aggregation on storage ([2]; storing the stem cells in normal saline containing aspirin) | Expression rate CD29 [3, 4] | Expression rate CD31 [3, 4] | Expression rate CD44 [3, 4] | Expression rate CD45 [3, 4] | Characteristics of the stem cells (FACS) ([3]; stored at a cold temperature for 24 hours after suspension in normal saline containing aspirin for 24 hours)
1 | CC(=O)Oc1ccccc1C(=O)O [acetylsalicylic acid] | 50% | 20% | 10% | 10% | 10% | 5% | a cytotoxic effect was exhibited |  |  |  |  |  |  |  | 
2 | CC(=O)Oc1ccccc1C(=O)O [aspirin lysine] |  |  |  |  |  |  |  | almost no change in the number of cells | slightly decreased, but the decrease was not significant | aggregation may be prevented without causing changes in the characteristics of cells | 99.97% | 0.21% | 99.25% | 0.17% | no influence of the concentration of aspirin
